Source: PubChem BioAssay AID1963825 (Molecular Pharmacology Branch, DTP, NCI, 2024)

Assay: Anticancer human tumor 997537-175-T-J1-PDC patient-derived colon adenocarcinoma cell line growth inhibition [POLQ]
Conditions: 997537-175-T-J1-PDC complex spheroid viability, combination with POLQ inhibitors; for IC50: curve of first compound; for viability, T/C: stronger effect = lower value
In short: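 Growth inhibition in 3D: complex spheroids (tumor PDC, HUVEC, MSC) treated with POLQ inhibitor combinations; where Cmax unknown, highest tested concentration 10 microM, except SN-38 at 1 microM.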

[1] = second compound 0.0316 µM, first compound 0.0316 µM
[2] = second compound 0.0316 µM, first compound 0.1 µM
[3] = second compound 0.1 µM, first compound 0.0316 µM
[4] = second compound 0.1 µM, first compound 0.1 µM
[5] = second compound 0.316 µM, first compound 0.0316 µM
[6] = second compound 0.316 µM, first compound 0.1 µM
[7] = second compound 1 µM, first compound 0.0316 µM
[8] = second compound 1 µM, first compound 0.1 µM
[9] = second compound 3.16 µM, first compound 0.0316 µM
[10] = second compound 3.16 µM, first compound 0.1 µM
[11] = second compound 10 µM, first compound 0.0316 µM
[12] = second compound 10 µM, first compound 0.1 µM
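Note: luminescence signal used as a surrogate for viable cells; spheroids exposed to drugs for seven days before readout.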

In the case of `CC[C@@]1(O)C(=O)OCc2c1cc1n(c2=O)Cc2cc3c(CN(C)C)c(O)ccc3nc2-1` + Nc1ccc(C#CCN(C(=O)Cc2ncc(C(F)(F)F)cc2C(F)(F)F)c2ccc(F)cc2)nn1, the IC50 (second compound 0.0316 µM) is reported as > 100 nM, the IC50 (second compound 0.1 µM) is reported as > 100 nM and the IC50 (second compound 0.316 µM) is reported as 90.8 nM. The IC50 (second compound 1 µM) was > 100 nM, the IC50 (second compound 3.16 µM) was > 100 nM and the IC50 (second compound 10 µM) was > 100 nM. For the same compound, the viability, T/C (second compound 0.0316 µM, first compound 0.000316 µM) was 104%, the viability, T/C (second compound 0.0316 µM, first compound 0.001 µM) was 94.6% and the viability, T/C (second compound 0.0316 µM, first compound 0.00316 µM) was 104%. The viability, T/C (second compound 0.0316 µM, first compound 0.01 µM) was 111%, the viability, T/C [1] was 94.7% and the viability, T/C [2] was 66.3%. For the same compound, the viability, T/C (second compound 0.1 µM, first compound 0.000316 µM) was 101%, the viability, T/C (second compound 0.1 µM, first compound 0.001 µM) was 91% and the viability, T/C (second compound 0.1 µM, first compound 0.00316 µM) was 101%. It also gave a viability, T/C (second compound 0.1 µM, first compound 0.01 µM) of 103%, a viability, T/C [3] of 83.2% and a viability, T/C [4] of 58.3%. For the same compound, the viability, T/C (second compound 0.316 µM, first compound 0.000316 µM) was 104%, the viability, T/C (second compound 0.316 µM, first compound 0.001 µM) was 90.9% and the viability, T/C (second compound 0.316 µM, first compound 0.00316 µM) was 107%. For the same compound, the viability, T/C (second compound 0.316 µM, first compound 0.01 µM) was 101%, the viability, T/C [5] was 77.3% and the viability, T/C [6] was 47.5%. The viability, T/C (second compound 1 µM, first compound 0.000316 µM) was 93.3%, the viability, T/C (second compound 1 µM, first compound 0.001 µM) was 89.8% and the viability, T/C (second compound 1 µM, first compound 0.00316 µM) was 102%. For the same compound, the viability, T/C (second compound 1 µM, first compound 0.01 µM) was 101%, the viability, T/C [7] was 83.9% and the viability, T/C [8] was 57.2%. It also gave a viability, T/C (second compound 3.16 µM, first compound 0.000316 µM) of 95.7%, a viability, T/C (second compound 3.16 µM, first compound 0.001 µM) of 98.2% and a viability, T/C (second compound 3.16 µM, first compound 0.00316 µM) of 107%. For the same compound, the viability, T/C (second compound 3.16 µM, first compound 0.01 µM) was 100%, the viability, T/C [9] was 79% and the viability, T/C [10] was 60.6%. The viability, T/C (second compound 10 µM, first compound 0.000316 µM) was 96.7%, the viability, T/C (second compound 10 µM, first compound 0.001 µM) was 99.4% and the viability, T/C (second compound 10 µM, first compound 0.00316 µM) was 116%. For the same compound, the viability, T/C (second compound 10 µM, first compound 0.01 µM) was 107%, the viability, T/C [11] was 81.3% and the viability, T/C [12] was 58.5%.

For `Nc1ccn(C2OC(CO)C(O)C2(F)F)c(=O)n1` (centres undefined) + Cc1cccc(N(C)C(=O)C2C(O)CCN2c2nc(C)cc(C(F)(F)F)c2C#N)c1, the IC50 (second compound 0.0316 µM) was > 10000 nM, the IC50 (second compound 0.1 µM) was > 10000 nM and the IC50 (second compound 0.316 µM) was > 10000 nM. The IC50 (second compound 1 µM) was > 10000 nM, the IC50 (second compound 3.16 µM) was > 10000 nM and the IC50 (second compound 10 µM) was > 10000 nM. For the same compound, the viability, T/C [1] was 96.2%, the viability, T/C [2] was 99.7% and the viability, T/C (second compound 0.0316 µM, first compound 0.316 µM) was 91.8%. It also gave a viability, T/C (second compound 0.0316 µM, first compound 1 µM) of 89.8%, a viability, T/C (second compound 0.0316 µM, first compound 3.16 µM) of 57.8% and a viability, T/C (second compound 0.0316 µM, first compound 10 µM) of 77%. The viability, T/C [3] was 106%, the viability, T/C [4] was 91.5% and the viability, T/C (second compound 0.1 µM, first compound 0.316 µM) was 85.1%. The viability, T/C (second compound 0.1 µM, first compound 1 µM) was 67.1%, the viability, T/C (second compound 0.1 µM, first compound 3.16 µM) was 90.5% and the viability, T/C (second compound 0.1 µM, first compound 10 µM) was 52.8%. It also gave a viability, T/C [5] of 91.4%, a viability, T/C [6] of 102% and a viability, T/C (second compound 0.316 µM, first compound 0.316 µM) of 79.3%. It also gave a viability, T/C (second compound 0.316 µM, first compound 1 µM) of 76.7%, a viability, T/C (second compound 0.316 µM, first compound 3.16 µM) of 80.4% and a viability, T/C (second compound 0.316 µM, first compound 10 µM) of 63.5%. For the same compound, the viability, T/C [7] was 91.8%, the viability, T/C [8] was 102% and the viability, T/C (second compound 1 µM, first compound 0.316 µM) was 73.7%. For the same compound, the viability, T/C (second compound 1 µM, first compound 1 µM) was 68.4%, the viability, T/C (second compound 1 µM, first compound 3.16 µM) was 66% and the viability, T/C (second compound 1 µM, first compound 10 µM) was 66.7%. It also gave a viability, T/C [9] of 95.3%, a viability, T/C [10] of 103% and a viability, T/C (second compound 3.16 µM, first compound 0.316 µM) of 90.4%. For the same compound, the viability, T/C (second compound 3.16 µM, first compound 1 µM) was 92.5%, the viability, T/C (second compound 3.16 µM, first compound 3.16 µM) was 86.1% and the viability, T/C (second compound 3.16 µM, first compound 10 µM) was 70.7%. For the same compound, the viability, T/C [11] was 94.8%, the viability, T/C [12] was 97.2% and the viability, T/C (second compound 10 µM, first compound 0.316 µM) was 96.6%. The viability, T/C (second compound 10 µM, first compound 1 µM) was 86.9%, the viability, T/C (second compound 10 µM, first compound 3.16 µM) was 47.2% and the viability, T/C (second compound 10 µM, first compound 10 µM) was 82%.
